Several values for one entry are separate records, joined by “and”; a condition that tells them apart may be missing. Equal values may be shown once. Read-outs that look alike come from different tables or passages of the source.
Columns and labels:
TRKA-TFG (TRK-T3) = target: T1, TRKA-TFG (TRK-T3) (Homo sapiens, UniProt P04629+Q92734); test: HotSpot in vitro kinase radiometric assay; assay type: biochemical
T1 construct: purchased Reaction Biology (HotSpot contract assay)

DDR1 = DDR1 (Homo sapiens, UniProt Q08345); test: HotSpot in vitro kinase radiometric assay; assay type: biochemical; design: purchased Reaction Biology (HotSpot contract assay)
382 unique human kinases [1] = test: biochemical; assay type: biochemical
382 unique human kinases [2] = target: T2, 382 unique human kinases (Homo sapiens, UniProt P11802); test: biochemical; assay type: biochemical; settings: CDK4/cyclin D3; [ATP] 5 µM; compound 10 uM; read-out: % Enzyme Activity (relative to DMSO controls)
T2 construct: purchased Reaction Biology (HotSpot contract assay)

382 unique human kinases [3] = target: T3, 382 unique human kinases (Homo sapiens, UniProt P24941); test: biochemical; assay type: biochemical; settings: 10 uM, read-out: % Enzyme Activity (relative to DMSO controls)
T3 construct: purchased Reaction Biology (HotSpot contract assay)

382 unique human kinases [4] = target: T4, 382 unique human kinases (Homo sapiens, UniProt P50750); test: biochemical; assay type: biochemical; settings: CDK9/cyclin T1; 10 uM; read-out: % Enzyme Activity (relative to DMSO controls)
T4 construct: purchased Reaction Biology (HotSpot contract assay)

ABL1 = ABL1 (Homo sapiens, UniProt P00519); test: HotSpot in vitro kinase radiometric assay; assay type: biochemical; design: purchased Reaction Biology (HotSpot contract assay)
LYN B = target: T5, LYN B (Homo sapiens, UniProt P07948); test: HotSpot in vitro kinase radiometric assay; assay type: biochemical
T5 construct: purchased Reaction Biology (HotSpot contract assay)
Procedure, shortened: (§1)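 Radiometric filter-binding read-out of 32P/33P-labelled phosphoproduct captured on filter paper. Reactions contain kinase, substrate, cofactors and ɣ-labelled ATP plus test compound; no modified substrate or coupling enzyme used.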

HSP90AB1 = tested on: HSP90AB1; design: method as in ChEMBL23 (accessed: 23/08/2018); settings: average of reported values; ref ChEMBL23 (accessed: 23/08/2018); cited from earlier work
ABL2/ARG = target: T6, ABL2/ARG (Homo sapiens, UniProt P42684); test: HotSpot in vitro kinase radiometric assay; assay type: biochemical
T6 construct: purchased Reaction Biology (HotSpot contract assay)

TRKC = target: T7, TRKC (Homo sapiens, UniProt Q16288); test: HotSpot in vitro kinase radiometric assay; assay type: biochemical
T7 construct: purchased Reaction Biology (HotSpot contract assay)

PDK4/PDKH4 = target: T8, PDK4/PDKH4 (Homo sapiens, UniProt Q16654); test: HotSpot in vitro kinase radiometric assay; assay type: biochemical
T8 construct: purchased Reaction Biology (HotSpot contract assay)
Procedure, shortened: as §1

PDK2/PDHK2 = target: T9, PDK2/PDHK2 (Homo sapiens, UniProt Q15119); test: HotSpot in vitro kinase radiometric assay; assay type: biochemical
T9 construct: purchased Reaction Biology (HotSpot contract assay)
Procedure, shortened: as §1

BLK = target: T10, BLK (Homo sapiens, UniProt P51451); test: HotSpot in vitro kinase radiometric assay; assay type: biochemical
T10 construct: purchased Reaction Biology (HotSpot contract assay)
Procedure, shortened: as §1

c-Src = target: T11, c-Src (Homo sapiens, UniProt P12931); test: HotSpot in vitro kinase radiometric assay; assay type: biochemical
T11 construct: purchased Reaction Biology (HotSpot contract assay)
Procedure, shortened: as §1

PEAK1 = target: T12, PEAK1 (Homo sapiens, UniProt Q9H792); test: HotSpot in vitro kinase radiometric assay; assay type: biochemical
T12 construct: purchased Reaction Biology (HotSpot contract assay)

FYN = target: T13, FYN (Homo sapiens, UniProt P06241); test: HotSpot in vitro kinase radiometric assay; assay type: biochemical
T13 construct: purchased Reaction Biology (HotSpot contract assay)

PASK = target: T14, PASK (Homo sapiens, UniProt Q96RG2); test: HotSpot in vitro kinase radiometric assay; assay type: biochemical
T14 construct: purchased Reaction Biology (HotSpot contract assay)
Procedure, shortened: as §1

TRKA = target: T15, TRKA (Homo sapiens, UniProt P04629); test: HotSpot in vitro kinase radiometric assay; assay type: biochemical
T15 construct: purchased Reaction Biology (HotSpot contract assay)
Procedure, shortened: as §1

T13 sequence (P06241 whole entry): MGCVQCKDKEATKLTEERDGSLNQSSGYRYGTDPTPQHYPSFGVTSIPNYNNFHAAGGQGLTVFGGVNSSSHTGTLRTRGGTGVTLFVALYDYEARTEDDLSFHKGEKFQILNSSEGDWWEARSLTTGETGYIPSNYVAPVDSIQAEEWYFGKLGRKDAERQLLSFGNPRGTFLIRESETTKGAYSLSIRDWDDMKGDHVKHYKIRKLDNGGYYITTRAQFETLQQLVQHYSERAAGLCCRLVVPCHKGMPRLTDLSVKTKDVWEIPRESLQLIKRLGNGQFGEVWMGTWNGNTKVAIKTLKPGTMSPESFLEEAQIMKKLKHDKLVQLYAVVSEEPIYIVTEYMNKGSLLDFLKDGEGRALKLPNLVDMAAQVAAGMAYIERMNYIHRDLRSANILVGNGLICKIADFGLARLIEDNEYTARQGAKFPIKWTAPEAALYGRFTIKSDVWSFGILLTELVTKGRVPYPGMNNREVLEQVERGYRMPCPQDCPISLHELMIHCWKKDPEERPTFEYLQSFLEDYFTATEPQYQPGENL
T12 sequence (Q9H792 whole entry): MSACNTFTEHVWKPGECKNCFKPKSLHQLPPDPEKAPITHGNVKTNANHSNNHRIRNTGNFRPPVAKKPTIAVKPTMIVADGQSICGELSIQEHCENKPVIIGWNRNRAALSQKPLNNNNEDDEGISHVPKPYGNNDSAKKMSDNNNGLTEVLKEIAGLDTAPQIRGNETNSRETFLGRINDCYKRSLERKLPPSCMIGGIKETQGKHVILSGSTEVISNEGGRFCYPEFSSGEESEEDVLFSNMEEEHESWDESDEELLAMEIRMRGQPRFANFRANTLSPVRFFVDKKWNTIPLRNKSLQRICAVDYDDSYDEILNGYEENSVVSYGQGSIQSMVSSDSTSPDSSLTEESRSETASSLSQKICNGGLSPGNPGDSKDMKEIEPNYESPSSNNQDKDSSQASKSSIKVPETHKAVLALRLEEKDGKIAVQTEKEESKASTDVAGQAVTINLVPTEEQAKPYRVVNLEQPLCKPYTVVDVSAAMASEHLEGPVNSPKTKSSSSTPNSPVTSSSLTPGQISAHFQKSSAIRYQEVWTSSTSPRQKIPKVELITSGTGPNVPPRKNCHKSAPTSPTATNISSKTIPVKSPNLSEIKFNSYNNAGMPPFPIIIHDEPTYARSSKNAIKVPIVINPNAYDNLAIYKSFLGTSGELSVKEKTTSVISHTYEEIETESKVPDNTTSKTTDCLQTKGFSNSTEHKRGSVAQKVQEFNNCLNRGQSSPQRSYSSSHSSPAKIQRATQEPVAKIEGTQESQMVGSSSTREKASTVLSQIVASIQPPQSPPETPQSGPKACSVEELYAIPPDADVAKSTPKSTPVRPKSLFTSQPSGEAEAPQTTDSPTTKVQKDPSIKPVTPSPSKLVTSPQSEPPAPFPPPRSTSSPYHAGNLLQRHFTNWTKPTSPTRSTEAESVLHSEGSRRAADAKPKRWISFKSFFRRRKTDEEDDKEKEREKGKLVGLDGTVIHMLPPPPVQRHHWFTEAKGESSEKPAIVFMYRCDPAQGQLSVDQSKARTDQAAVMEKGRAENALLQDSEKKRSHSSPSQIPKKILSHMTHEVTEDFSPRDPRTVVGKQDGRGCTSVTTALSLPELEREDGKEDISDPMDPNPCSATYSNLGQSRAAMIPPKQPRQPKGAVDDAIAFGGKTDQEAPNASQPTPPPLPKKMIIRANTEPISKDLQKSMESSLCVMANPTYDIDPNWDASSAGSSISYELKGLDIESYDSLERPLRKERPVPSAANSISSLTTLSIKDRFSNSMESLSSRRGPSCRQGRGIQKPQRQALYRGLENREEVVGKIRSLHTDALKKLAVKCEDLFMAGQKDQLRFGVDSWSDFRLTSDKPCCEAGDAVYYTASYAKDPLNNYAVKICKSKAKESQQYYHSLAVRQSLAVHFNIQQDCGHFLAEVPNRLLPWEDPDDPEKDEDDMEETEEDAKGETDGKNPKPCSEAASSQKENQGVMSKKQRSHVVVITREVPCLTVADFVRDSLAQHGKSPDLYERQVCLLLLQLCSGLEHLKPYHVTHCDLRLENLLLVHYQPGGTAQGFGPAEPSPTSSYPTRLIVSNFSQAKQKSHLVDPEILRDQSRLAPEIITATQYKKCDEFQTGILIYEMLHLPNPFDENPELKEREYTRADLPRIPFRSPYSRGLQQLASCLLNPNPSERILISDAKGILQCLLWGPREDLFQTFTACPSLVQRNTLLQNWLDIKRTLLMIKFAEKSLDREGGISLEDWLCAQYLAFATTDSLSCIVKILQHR
T7 sequence (Q16288 32-839): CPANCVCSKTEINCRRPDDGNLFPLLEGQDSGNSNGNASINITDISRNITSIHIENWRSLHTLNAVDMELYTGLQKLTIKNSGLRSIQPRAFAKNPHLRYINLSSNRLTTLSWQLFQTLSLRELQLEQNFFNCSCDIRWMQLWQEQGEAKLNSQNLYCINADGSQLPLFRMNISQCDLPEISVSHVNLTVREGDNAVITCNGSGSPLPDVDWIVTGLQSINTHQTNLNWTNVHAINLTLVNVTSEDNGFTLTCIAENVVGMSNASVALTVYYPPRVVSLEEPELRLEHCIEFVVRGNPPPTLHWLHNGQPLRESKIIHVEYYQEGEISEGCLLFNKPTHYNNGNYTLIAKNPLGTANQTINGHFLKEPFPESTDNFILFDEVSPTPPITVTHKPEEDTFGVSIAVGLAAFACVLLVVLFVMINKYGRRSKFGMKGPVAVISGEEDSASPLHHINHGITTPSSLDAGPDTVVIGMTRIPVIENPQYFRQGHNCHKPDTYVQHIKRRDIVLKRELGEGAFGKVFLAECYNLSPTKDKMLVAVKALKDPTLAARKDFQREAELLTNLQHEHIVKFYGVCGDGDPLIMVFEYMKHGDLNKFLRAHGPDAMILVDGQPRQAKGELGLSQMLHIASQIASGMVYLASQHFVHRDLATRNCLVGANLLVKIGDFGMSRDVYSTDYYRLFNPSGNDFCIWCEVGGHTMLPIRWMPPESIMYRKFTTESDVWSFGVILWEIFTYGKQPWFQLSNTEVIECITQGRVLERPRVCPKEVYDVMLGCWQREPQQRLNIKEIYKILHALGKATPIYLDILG
T11 sequence (P12931 whole entry): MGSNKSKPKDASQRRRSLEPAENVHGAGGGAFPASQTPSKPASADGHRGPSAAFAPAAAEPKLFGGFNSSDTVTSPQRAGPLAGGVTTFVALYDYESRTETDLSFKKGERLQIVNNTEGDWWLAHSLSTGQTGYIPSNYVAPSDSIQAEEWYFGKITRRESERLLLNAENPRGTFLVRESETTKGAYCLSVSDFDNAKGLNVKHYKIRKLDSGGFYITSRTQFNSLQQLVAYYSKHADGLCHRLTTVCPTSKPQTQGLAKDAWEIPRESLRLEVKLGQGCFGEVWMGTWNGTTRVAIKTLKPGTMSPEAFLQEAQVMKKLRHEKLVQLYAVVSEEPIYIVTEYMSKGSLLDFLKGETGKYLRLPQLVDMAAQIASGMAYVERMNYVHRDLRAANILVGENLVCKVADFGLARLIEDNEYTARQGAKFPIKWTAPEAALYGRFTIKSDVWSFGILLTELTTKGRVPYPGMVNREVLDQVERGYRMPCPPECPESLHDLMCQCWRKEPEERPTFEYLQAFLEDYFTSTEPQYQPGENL
T10 sequence (P51451 whole entry): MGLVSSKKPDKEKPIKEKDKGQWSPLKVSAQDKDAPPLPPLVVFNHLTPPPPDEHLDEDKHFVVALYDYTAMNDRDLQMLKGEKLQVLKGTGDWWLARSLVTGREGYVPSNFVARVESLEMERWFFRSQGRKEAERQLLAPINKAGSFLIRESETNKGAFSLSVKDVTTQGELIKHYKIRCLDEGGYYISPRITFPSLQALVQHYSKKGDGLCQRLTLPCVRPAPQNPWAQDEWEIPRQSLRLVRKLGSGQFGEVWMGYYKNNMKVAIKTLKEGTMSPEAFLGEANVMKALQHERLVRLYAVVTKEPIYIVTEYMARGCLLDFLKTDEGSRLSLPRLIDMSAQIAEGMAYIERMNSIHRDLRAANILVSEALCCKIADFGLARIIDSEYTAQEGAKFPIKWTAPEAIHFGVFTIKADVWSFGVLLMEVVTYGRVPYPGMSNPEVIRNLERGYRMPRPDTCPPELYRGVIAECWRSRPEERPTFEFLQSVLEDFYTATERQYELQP
T1 sequence (Q92734+P04629 fused): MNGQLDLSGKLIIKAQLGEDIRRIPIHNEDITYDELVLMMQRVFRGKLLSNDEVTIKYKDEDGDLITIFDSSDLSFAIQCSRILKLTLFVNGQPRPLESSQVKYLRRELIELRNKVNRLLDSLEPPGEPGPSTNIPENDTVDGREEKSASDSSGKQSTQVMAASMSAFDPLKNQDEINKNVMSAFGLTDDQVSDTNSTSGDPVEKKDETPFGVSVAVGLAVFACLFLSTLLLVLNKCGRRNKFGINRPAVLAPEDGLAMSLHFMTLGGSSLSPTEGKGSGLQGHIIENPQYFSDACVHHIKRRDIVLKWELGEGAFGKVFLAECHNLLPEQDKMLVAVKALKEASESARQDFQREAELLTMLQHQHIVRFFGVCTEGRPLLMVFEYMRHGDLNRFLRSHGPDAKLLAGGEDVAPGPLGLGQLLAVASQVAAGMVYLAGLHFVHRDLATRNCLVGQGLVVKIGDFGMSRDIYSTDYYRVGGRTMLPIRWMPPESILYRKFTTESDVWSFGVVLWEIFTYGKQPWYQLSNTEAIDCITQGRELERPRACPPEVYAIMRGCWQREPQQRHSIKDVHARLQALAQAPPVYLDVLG
T2 sequence (P11802 whole entry): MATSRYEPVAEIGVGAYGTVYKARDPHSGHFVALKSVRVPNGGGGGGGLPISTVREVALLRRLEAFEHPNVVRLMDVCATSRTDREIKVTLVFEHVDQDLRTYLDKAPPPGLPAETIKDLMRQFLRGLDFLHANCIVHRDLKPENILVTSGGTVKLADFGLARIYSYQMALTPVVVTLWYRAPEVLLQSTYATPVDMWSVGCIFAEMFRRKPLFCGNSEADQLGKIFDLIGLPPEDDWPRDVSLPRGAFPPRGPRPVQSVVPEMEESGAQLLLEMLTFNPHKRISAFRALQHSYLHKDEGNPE

## CC(C)c1cc(-c2n[nH]c(=O)n2-c2ccc3c(ccn3C)c2)c(O)cc1O [Ganetespib]
TRKA-TFG (TRK-T3); TRKA-TFG, single replicate curves
  HILLSLOPE: -1.03 and -1.06 and -1.02
TRKA-TFG (TRK-T3); TRKA-TFG, single replicate curves, read-out: IC50
  IC50: 328 nM and 331 nM and 326 nM
TRKA-TFG (TRK-T3); radiometric 10-point concentration-response, n = 3, read-out: in vitro biochemical IC50, TRKA-TFG
  IC50: 329 nM
TRKA-TFG (TRK-T3); read-out: % inhibition of TRKA-TFG at 1 μM, 1 μM, secondary screening
  inhibition at 1 µM: > 80%
TRKA-TFG (TRK-T3); read-out: % inhibition of TRKA-TFG at 10 μM, 10 μM, kinome profiling
  inhibition at 10 µM: > 85%
DDR1; DDR1, single replicate curves
  HILLSLOPE: -0.94 and -1.03 and -0.91
DDR1; DDR1, single replicate curves, read-out: IC50
  IC50: 361 nM and 363 nM and 289 nM
DDR1; radiometric 10-point concentration-response, n = 3, read-out: in vitro biochemical IC50, DDR1
  IC50: 338 nM
DDR1; read-out: % inhibition of DDR1 at 1 μM, 1 μM, secondary screening
  inhibition at 1 µM: > 85%
382 unique human kinases [1]
  number of kinases with inhibition of catalytic activity below 1 μM: 4
382 unique human kinases [1]; 10 μM
  number of native kinases inhibited by more than 85% at 10 μM: 20
382 unique human kinases [1]; Figure 3
  In vitro screening: kinases hit / kinases screened: 21/382
382 unique human kinases [1]; cutoff of >85% inhibition at 10 μM, luminespib and ganetespib large kinome panel, others 16-kinase panel
  number of off-target kinases experimentally identified, In vitro binding (KinomeSCAN): 21
382 unique human kinases [2]
  remaining activity at 10 µM: 53.8%
382 unique human kinases [3]; CDK2/Cyclin A1
  remaining activity at 10 µM: 108%
382 unique human kinases [3]; CDK2/cyclin E
  remaining activity at 10 µM: 93.7%
382 unique human kinases [4]
  remaining activity at 10 µM: 100%
ABL1; ABL1, single replicate curves
  HILLSLOPE: -0.99 and -0.93 and -0.96
ABL1; ABL1, single replicate curves, read-out: IC50
  IC50: 625 nM and 519 nM and 539 nM
ABL1; radiometric 10-point concentration-response, n = 3, read-out: in vitro biochemical IC50, ABL1
  IC50: 561 nM
ABL1; read-out: % inhibition of ABL1 at 1 μM, 1 μM, secondary screening
  inhibition at 1 µM: > 80%
LYN B; 10 μM, Fig 6C median ± standard deviation (n = 2)
  % inhibition at 10 uM: LYN B: not inhibited
HSP90AB1
  pActivity, HSP90AB1: 8.3
ABL2/ARG; ABL2, single replicate curves
  HILLSLOPE: -0.77 and -0.90 and -0.92
ABL2/ARG; ABL2, single replicate curves, read-out: IC50
  IC50: 174 nM and 230 nM and 240 nM
ABL2/ARG; radiometric 10-point concentration-response, n = 3, read-out: in vitro biochemical IC50, ABL2
  IC50: 215 nM
ABL2/ARG; read-out: % inhibition of ABL2 at 1 μM, 1 μM, secondary screening
  inhibition at 1 µM: > 85%

## CCNC(=O)c1noc(-c2cc(Cl)c(O)cc2O)c1-c1ccc(OC)cc1 [VER-50589]
TRKC; TRKC, 10uM, ATP 100 uM, Data 1, Data 2
  % Enzyme Activity (relative to DMSO controls): 86.46%
TRKC; TRKC, 10uM, ATP 100 uM, Data 1, Data 2, read-out: % Enzyme Activity (relative to DMSO controls)
  remaining activity at 10 µM: 94.2%
TRKC; read-out: % inhibition at 10 uM: TRKC, 10 μM, Fig 6C median ± standard deviation (n = 2)
  inhibition at 10 µM: 10 ± 5%
DDR1; DDR1, 10uM, ATP 100 uM, Data 1, Data 2
  % Enzyme Activity (relative to DMSO controls): 93.93%
DDR1; DDR1, 10uM, ATP 100 uM, Data 1, Data 2, read-out: % Enzyme Activity (relative to DMSO controls)
  remaining activity at 10 µM: 90.3%
DDR1; read-out: % inhibition at 10 uM: DDR1, 10 μM, Fig 6C median ± standard deviation (n = 2)
  inhibition at 10 µM: 8 ± 3%
ABL1; ABL1, 10uM, ATP 40 uM, Data 1, Data 2
  % Enzyme Activity (relative to DMSO controls): 99.15%
ABL1; ABL1, 10uM, ATP 40 uM, Data 1, Data 2, read-out: % Enzyme Activity (relative to DMSO controls)
  remaining activity at 10 µM: 96%
ABL1; read-out: % inhibition at 10 uM: ABL1, 10 μM, Fig 6C median ± standard deviation (n = 2)
  inhibition at 10 µM: 2 ± 2%
PDK4/PDKH4; PDK4/PDKH4, 10uM, ATP 30 uM, Data 1, Data 2
  % Enzyme Activity (relative to DMSO controls): -0.13% and 4.42%
PDK4/PDKH4; read-out: % inhibition at 10 uM: PDK4, 10 μM, Fig 6C median ± standard deviation (n = 2)
  inhibition at 10 µM: 98 ± 3%
PDK2/PDHK2; PDK2/PDHK2, 10uM, ATP 15 uM, Data 1, Data 2
  % Enzyme Activity (relative to DMSO controls): 9.11% and 0.34%
PDK2/PDHK2; read-out: % inhibition at 10 uM: PDK2, 10 μM, Fig 6C median ± standard deviation (n = 2)
  inhibition at 10 µM: 95 ± 6%
BLK; BLK, 10uM, ATP 10 uM, Data 1, Data 2
  % Enzyme Activity (relative to DMSO controls): 99.82%
BLK; BLK, 10uM, ATP 10 uM, Data 1, Data 2, read-out: % Enzyme Activity (relative to DMSO controls)
  remaining activity at 10 µM: 94%
BLK; read-out: % inhibition at 10 uM: BLK, 10 μM, Fig 6C median ± standard deviation (n = 2)
  inhibition at 10 µM: 3 ± 4%
c-Src; c-Src, 10uM, ATP 15 uM, Data 1, Data 2
  % Enzyme Activity (relative to DMSO controls): 103.77% and 68.69%
c-Src; read-out: % inhibition at 10 uM: SRC, 10 μM, Fig 6C median ± standard deviation (n = 2)
  inhibition at 10 µM: 14 ± 25%
LYN B; LYN B, 10uM, ATP 20 uM, Data 1, Data 2
  % Enzyme Activity (relative to DMSO controls): 103.45%
LYN B; LYN B, 10uM, ATP 20 uM, Data 1, Data 2, read-out: % Enzyme Activity (relative to DMSO controls)
  remaining activity at 10 µM: 105%
LYN B; read-out: % inhibition at 10 uM: LYN B, 10 μM, Fig 6C median ± standard deviation (n = 2)
  inhibition at 10 µM: -4 ± 1%
PEAK1; PEAK1, 10uM, ATP 30 uM, Data 1, Data 2
  % Enzyme Activity (relative to DMSO controls): 104.61%
PEAK1; PEAK1, 10uM, ATP 30 uM, Data 1, Data 2, read-out: % Enzyme Activity (relative to DMSO controls)
  remaining activity at 10 µM: 105%
PEAK1; read-out: % inhibition at 10 uM: PEAK1, 10 μM, Fig 6C median ± standard deviation (n = 2)
  inhibition at 10 µM: -5 ± 1%
HSP90AB1
  pActivity, HSP90AB1: 7.55
FYN; FYN, 10uM, ATP 30 uM, Data 1, Data 2
  % Enzyme Activity (relative to DMSO controls): 116.15%
FYN; FYN, 10uM, ATP 30 uM, Data 1, Data 2, read-out: % Enzyme Activity (relative to DMSO controls)
  remaining activity at 10 µM: 109%
FYN; read-out: % inhibition at 10 uM: FYN, 10 μM, Fig 6C median ± standard deviation (n = 2)
  inhibition at 10 µM: -13 ± 5%
ABL2/ARG; ABL2/ARG, 10uM, ATP 30 uM, Data 1, Data 2
  % Enzyme Activity (relative to DMSO controls): 107.1%
ABL2/ARG; ABL2/ARG, 10uM, ATP 30 uM, Data 1, Data 2, read-out: % Enzyme Activity (relative to DMSO controls)
  remaining activity at 10 µM: 99.9%
ABL2/ARG; read-out: % inhibition at 10 uM: ABL2, 10 μM, Fig 6C median ± standard deviation (n = 2)
  inhibition at 10 µM: -4 ± 5%
PASK; PASK, 10uM, ATP 50 uM, Data 1, Data 2
  % Enzyme Activity (relative to DMSO controls): 102.75%
PASK; PASK, 10uM, ATP 50 uM, Data 1, Data 2, read-out: % Enzyme Activity (relative to DMSO controls)
  remaining activity at 10 µM: 109%
PASK; read-out: % inhibition at 10 uM: PASK, 10 μM, Fig 6C median ± standard deviation (n = 2)
  inhibition at 10 µM: -6 ± 5%
TRKA; TRKA, 10uM, ATP 100 uM, Data 1, Data 2
  % Enzyme Activity (relative to DMSO controls): 96.8%
TRKA; TRKA, 10uM, ATP 100 uM, Data 1, Data 2, read-out: % Enzyme Activity (relative to DMSO controls)
  remaining activity at 10 µM: 100%
TRKA; read-out: % inhibition at 10 uM: TRKA, 10 μM, Fig 6C median ± standard deviation (n = 2)
  inhibition at 10 µM: 2 ± 2%
